Experimental data as given in patent US12157749B2, “Borate-based drug and use thereof” (Chengdu Origin Biotechnology Limited Company, priority 2018, dated 2024).
Several values for one entry are separate records, joined by “and”; a condition that tells them apart may be missing. Identical values can stand only once. Entries after “also recorded” stand apart in the source; their conditions may differ. Counter-ions that a name gives are not always drawn. Marks after values point to notes of the source that are not given here.

Columns and labels:
[1] = test system: transplantation tumor of human multiple myeloma MM.1S; test: Transplantation tumor model of human multiple myeloma cells MM.1S in CB17-SCID mouse, dose 0.00831 mmol/kg (Activity Experiment Example 2); type: in vivo; settings: for tumor weight (g): X ± SD, tumor dissected on day 19; for tumor weight (g) / tumor inhibition rate (%): five doses; for Relative tumor proliferation rate T/C(%): 0.00831 mmol/kg oral gavage twice a week; for tumor inhibition rate (%): from tumor weight
Protocol: The model used in this experiment was the transplantation tumor model of human multiple myeloma cells line MM.1 S in CB17-SCID mouse (purchased from Beijing Weitong Lihua Experimental Animal Technology Co., Ltd.). Cryopreserved MM.1S cells were cultured in vitro by conventionally way after resuscitation. The cells were collected in logarithmic growth phase and diluted with serum-free culture medium or PBS to form a tumor cell suspension with a concentration of 5×10^7/ml. The tumor cell suspensions prepared above were taken with a 1 ml syringe and injected subcutaneously into the left armpit backrest side of the mouse, and 0.2 ml was injected into each inoculation site. About 1 to 2 weeks after the cultured tumor cells were injected into CB17-SCID mouse, the tumors were touched under the armpit. When the tumor volume was more than 100 mm^3, the tumor volume was measured and calculated, and the mice were randomly divided into groups according to the tumor volume. The administration doses of different test samples were equivalent doses on a molar basis with a specific dose of 0.00831 mmol/kg. Administration mode and frequency: The test samples were administered by oral gavage with a volume of 10 ml/kg. The model group was given equal volume of solvent. The test samples were administered twice a week for five times (with administration dose of 0.00831 mmol/kg, i.e., the dose of MLN9708 being 4.30 mg/kg, the dose of the compound 6a being 4.67 mg/kg, and the dose of the compound 6b being 4.53 mg/kg) for a duration of 19 days. The administration was conducted on the 1st, 4th, 8th, 11th and 15th day, and the experiment was finished on the 19th day. The mental state, activity, eating and other general conditions of mice were observed every day, and the weight was measured twice a week. The short diameter (a) and long diameter (b) of each mouse tumor were measured with vernier caliper twice a week, and the tumor volume was calculated according to formula (a^2×b)/2. The relative tumor volume (RTV) was calculated according to the measured tumor volume, RTV=Vt/V0. Wherein, V0 was the tumor volume when random grouping (i.e. d0) and Vt was the tumor volume at each measurement (i.e. dn). According to the following formula, evaluation index of anti-tumor activity, the relative tumor proliferation rate T/C (%), was calculated: Note: TRTV is RTV of treatment group, and CRTV is RTV of model control group. Efficacy evaluation standard is T/C %≤40%, and after statistics procession, p<0.05 is considered significant. On the 19th day, after the tumor was weighted and measured, the mice in each group were killed, and the tumor was dissected and weighed. According to the tumor weight, the tumor inhibition rate (TGI) was calculated, TGI=((average tumor weight of model group−average tumor weight of administration group)/average tumor weight of model group)×100%.

[2] = test system: transplantation tumor of human multiple myeloma MM.1S; test: Transplantation tumor model of human multiple myeloma cells MM.1S in CB17-SCID mouse, low dose 0.00554 mmol/kg (Activity Experiment Example 4); type: in vivo; settings: for area under the curve of tumor volume vs. time curve, ascending sequence: FIG. 2; for Relative tumor proliferation rate T/C(%): 0.00554 mmol/kg oral gavage twice a week; for tumor inhibition rate (%): from tumor weight at end of experiment
Protocol: The model used in this experiment was the transplantation tumor model of human multiple myeloma cells line MM.1S in CB17-SCID mouse. Cryopreserved MM.1S cells were cultured in vitro conventionally after resuscitation. The cells were collected in logarithmic growth phase and diluted with serum-free culture medium or PBS to form a tumor cell suspension with a concentration of 5×10^7/ml. The tumor cell suspensions prepared above were taken with a 1 ml syringe and injected subcutaneously into the left armpit backrest side of the mouse, and 0.2 ml was injected into each inoculation site. About 1 to 2 weeks after the cultured tumor cells were injected into the CB17-SCID mouse, the tumors were touched under the armpit. When the tumor volume was more than 100 mm^3, the tumor volume was measured and calculated, and the mice were randomly divided into groups according to the tumor volume. The administration doses of different test samples were equivalent doses on a molar basis with a specific dose of 0.00554 mmol/kg. Administration mode and frequency: the test samples were administered by oral gavage with a volume of 10 ml/kg. The model group was given equal volume of solvent. The test samples were administered twice a week for five times with an administration dose of 0.00554 mmol/kg, i.e., the dose of MLN9708 being 2.86 mg/kg, the dose of the compound 6q being 2.77 mg/kg, the dose of the compound 6f being 2.80 mg/kg, and the dose of the compound 6b being 3.02 mg/kg, for a duration of 17 days. The administration was conducted on the 1st, 5th, 8th, 12th and 15th day, and the experiment was finished on the 17th day. The mental state, activity, eating and other general conditions of mice were observed every day, and the weight was measured twice a week. The short diameter (a) and long diameter (b) of each mouse tumor were measured with a vernier caliper twice a week, and the tumor volume was calculated according to formula (a^2×b)/2. The relative tumor volume (RTV) was calculated according to the measured tumor volume, RTV=Vt/V0. Wherein, V0 was the tumor volume when random grouping (i.e. d0) and Vt was the tumor volume at each measurement (i.e. […]). According to the following formula, evaluation index of anti-tumor activity relative to the relative tumor proliferation rate T/C (%) was calculated: Note: TRTV is RTV of treatment group, and CRTV is RTV of model control group. According to “Technical Guidelines for Non-clinical Research of Cytotoxic Antitumor Drugs” issued by State Food and Drug Administration in China, the evaluation standard is T/C %≤40%, and after statistics procession, p<0.05 is considered significant. On the 19th day, after the tumor was weighted and measured, the mice in each group were killed, and the tumor was dissected and weighed. According to the tumor weight, the tumor inhibition rate (TGI) was calculated, TGI=((average tumor weight of model group−average tumor weight of administration group)/average tumor weight of model group)×100%.

[3] = day 19, 0.00831 mmol/kg oral gavage
[4] = X ± SD, tumor dissected at end of experiment, 0.00554 mmol/kg oral gavage, five doses
[5] = 0.00554 mmol/kg oral gavage, five doses

| SMILES | tumor weight (g) ([1]; 0.00831 mmol/kg oral gavage) | Relative tumor proliferation rate T/C(%) ([1]; day 4) | Relative tumor proliferation rate T/C(%) ([1]; day 8) | Relative tumor proliferation rate T/C(%) ([1]; day 11) | Relative tumor proliferation rate T/C(%) ([1]; day 15) | Relative tumor proliferation rate T/C(%) ([1]; day 19) | tumor inhibition rate (%) [1, 3] [%] | inhibition of tumor growth (in words) ([2]; 0.00554 mmol/kg oral gavage) | inhibitory effect on tumor growth compared with other test samples ([2]; 0.00554 mmol/kg oral gavage) | inhibitory effect sequence on transplantation tumor growth from strong to weak ([2]; 0.00554 mmol/kg oral gavage) [b>6f>6q>MLN9708] | area under the curve of tumor volume vs. time curve, ascending sequence ([2]; 0.00554 mmol/kg oral gavage) | tumor weight (g) [2, 4] | Relative tumor proliferation rate T/C(%) ([2]; day 5) | Relative tumor proliferation rate T/C(%) ([2]; day 8) | Relative tumor proliferation rate T/C(%) ([2]; day 12) | Relative tumor proliferation rate T/C(%) ([2]; day 15) | Relative tumor proliferation rate T/C(%) ([2]; day 17) | tumor inhibition rate (%) [2, 5] [%] | onset time / effective time of controlling tumor growth (in words) ([2]; 0.00554 mmol/kg oral gavage) | other results |
| --- | --- | --- | --- | --- | --- | --- | --- | --- | --- | --- | --- | --- | --- | --- | --- | --- | --- | --- | --- | --- |
| CC(C)C[C@H](NC(=O)CNC(=O)c1cc(Br)ccc1Cl)B1OC(=O)C(CC(=O)O)(CC(=O)O)O1 [Compound 6a, (R)-2,2′-(2-(1-(2-(2-chloro-5-bromo-benzoylamino)acetylamino)-3-methylbutyl)-5-oxo-1,3,2-dioxaborolan-4,4-diyl)diacetic acid] | 2.471 ± 0.598^★★▴▴ g | 87.94% | 69.95% | 88.41^▴ % | 94.56^▴ % | 80.45% | 31.63 |  |  |  |  |  |  |  |  |  |  |  |  |  |
| CC(C)C[C@H](NC(=O)CNC(=O)c1cc(Br)ccc1F)B1OC(=O)C(CC(=O)O)(CC(=O)O)O1 [Compound 6b, (R)-2,2′-(2-(1-(2-(2-fluoro-5-bromo-benzoylamino)acetylamino)-3-methylbutyl)-5-oxo-1,3,2-dioxaborolan-4,4-diyl)diacetic acid] | 0.063 ± 0.072^★★ g | 48.84^▴ % | 4.3^▴▴ % | 1.75^▴▴ % | 1.12^▴▴ % | 0.5^▴▴ % | 98.26 | can significantly inhibit tumor growth | significantly stronger inhibitory effect on tumor growth than MLN9708(p<0.01); also recorded: has the fastest effect on tumor growth and has the strongest inhibitory activity | 6 | compound 6b<compound 6f<compound 6q | 0.360 ± 0.415^★★▴▴ g | 18 | 5.86^▴▴ % | 9.04% | 10.59^▴▴ % | 9.06^▴▴ % | 87.75 |  | inhibition of tumor growth (in words) ([1]; 0.00831 mmol/kg oral gavage): can significantly inhibit tumor growth; inhibitory effect on tumor growth compared with MLN9708 and compound 6a ([1]; 0.00831 mmol/kg oral gavage): significantly stronger inhibitory effect on tumor growth than MLN9708(p<0.01) and the compound 6a(p<0.01); inhibitory effect on tumor growth compared with compound 6c ([1]; same method and procedure, data not shown): significantly stronger inhibitory effect on tumor growth of the transplantation tumor of human multiple myeloma MM.1S in SCID mouse than that of the compound 6c |
| CC(C)C[C@H](NC(=O)CNC(=O)c1cc(Br)ccc1F)B1OC(=O)C(c2ccccc2)O1 (stereo partly drawn) [Compound 6f, 2-fluoro-5-bromo-N-[2-({(1R)-3-methyl-1-[4-oxo-5-phenyl-1,3,2-dioxaborolan-2-yl]butyl}amino)-2-oxoethyl]benzamide] |  |  |  |  |  |  |  | can also significantly inhibit tumor growth | the inhibitory effect is weaker than that of compound 6b; also recorded: its inhibitory activity is weaker than that the compound of 6b | 6 | compound 6b<compound 6f<compound 6q | 0.741 ± 0.917^★★▴▴ g |  | 43.49^▴▴● % | 31.17% | 30.15^▴▴ % | 22.86^▴▴ % | 74.82 | longer onset time to control tumor growth than that of the compound 6b |  |
| CC(C)C[C@H](NC(=O)CNC(=O)c1cc(Cl)ccc1F)B1OC(=O)C(CC(=O)O)(CC(=O)O)O1 [Compound 6q, (R)-2,2′-(2-(1-(2-(2-fluoro-5-chloro-benzoylamino)acetylamino)-3-methylbutyl)-5-oxo-1,3,2-dioxaborolan-4,4-diyl)diacetic acid] |  |  |  |  |  |  |  | can also significantly inhibit tumor growth | the inhibitory effect is weaker than that of compound 6b | 6 | compound 6b<compound 6f<compound 6q | 0.945 ± 0.603^★★▴▴● g |  | 47.34^▴▴●● % | 67.42% and 67.42^▴▴● % | 45.35^▴▴ % | 29.00% and 29.20^▴▴ % | 67.85 | the effective time of controlling tumor growth was longer than the 6f group and significantly longer than the 6b group |  |
| CC(C)C[C@H](NC(=O)CNC(=O)c1cc(Cl)ccc1Cl)B1OC(=O)C(CC(=O)O)(CC(=O)O)O1 [MLN9708, Ixazomib Citrate, reference compound] | 1.782 ± 1.361^★★▴▴ g | 84.97% | 59.75% | 51.05% | 41.67% | 56.1% | 50.69 | no effect on inhibiting tumor growth |  | 6 |  |  | 90.08 | 112.42% | 137.07% | 97.25% | 84.29% | −0.48 |  | tumor weight [2, 4]: 2.953 ± 0.668 g |
